Peptide text beside a SMILES is read from it.
Design: AUC: unit not given beside the values
Protocol: The pH of simulated gastric fluid (SGF, 0.15 M NaCl, pH 2.5) was increased to 7.5 with […] (40 mM), and the following compounds were added to adjust the pH to 6.8 and simulate a duodenal-jejunal environment and create simulated small intestinal fluid (SIF): (i) a bile salt mixture containing equimolar quantities (0.125 M) of sodium taurocholate and glycodeoxycholic acid in NaHC03 (1 M), (ii) solutions of pancreatin from porcine pancreas (9 mg/mL) in water was prepared and added at approximately physiological ratios. The pH was adjusted to 6.8 with HCl (0.1 M). Peptides were dissolved in SIF at a final peptide concentration of 50 µM. Aliquots (1 mL) were prepared for sampling at different time points. Simulated intestinal digestion was carried out at 37°C, and aliquots (1 mL) were taken at 0, 5, 15, and 60 min after the start of the experiment. After peptide hydrolysis, digestive enzymes were inactivated at 95°C for 15 min and samples were cooled immediately on ice water and stored at -20°C until further analysis.
Quantification of dipeptides derived from digestion were performed using a liquid chromatography multiple reaction ion monitoring-mass spectrometry (LC-MRM-MS) method as described van Platerink CJ, Janssen HG, Horsten R, Haverkamp J. Quantification of ACE inhibiting peptides in human plasma using high performance liquid chromatography-mass spectrometry. J Chromatogr B Analyt Technol Biomed Life Sci 2006,830:151-157. Peptide separation was performed on an Atlantis Hilic Silica column (2.1 x 150 mm, 3 µm particle size) and a Micromass Quattro-II (Milford MA, USA) with HP1100LC system (Hewlett-Packard, USA). The gradient started at 100% 0.1 % trifluoro acetic acid in Milli-Q water and ended at 70% 0.1% trifluoro acetic acid in acetonitrile. To support the ionization, a 70/30 mixture of propionic acid and propanol-2 was added postcolumn at a flow rate of […]. All analyses were conducted on an Alliance 2795 HPLC (Waters, Milford MA, USA) combined with a Quattro Premier triple quadrupole mass spectrometer from the same supplier.
An intestinal stability data set consisting of 228 dipeptides was generated based on the results from the simulated digestion experiments. The area under the time - peptide concentration curve was calculated and used for further analysis and modelling. An ACE inhibitory dipeptide database consisting of 228 dipeptides was constructed.
For each peptide the relative stability (in % of initial dipeptide concentration) was plotted against time and the area under the curve (AUC) was calculated.

Compound	AUC	intestinal stability (in words)
C[C@H](NC(=O)[C@@H](N)CS)C(=O)O [CA] (H-Cys-Ala-OH)	0	–
C[C@@H](O)[C@H](NC(=O)[C@@H](N)CS)C(=O)O [CT] (H-Cys-Thr-OH)	–	high intestinal stability
C[C@@H](O)[C@H](NC(=O)[C@@H](N)CC(=O)O)C(=O)O [DT] (H-Asp-Thr-OH)	–	high intestinal stability
N[C@@H](Cc1c[nH]c2ccccc12)C(=O)N[C@@H](CC(=O)O)C(=O)O [WD] (H-Trp-Asp-OH)	–	high intestinal stability
N[C@@H](Cc1c[nH]c2ccccc12)C(=O)N[C@@H](CO)C(=O)O [WS] (H-Trp-Ser-OH)	–	high intestinal stability
C[C@@H](O)[C@H](NC(=O)[C@@H](N)Cc1c[nH]c2ccccc12)C(=O)O [WT] (H-Trp-Thr-OH)	–	high intestinal stability

Reference: patent EP2161028B1, “Food product comprising dipeptides having antihypertensive properties” (Unilever N.V., priority 2008, dated 2011)
